From patent publication US11174250B2, “Substituted carboxamides as inhibitors of WDR5 protein-protein binding” (PROPELLON THERAPEUTICS INC., priority 2016, dated 2021)
Where two headings read alike, the source gives them in different places.

Assays:
WDR5 protein = WDR5 protein (Homo sapiens (Human), UniProt P61964); assay: Surface Plasmon Resonance (SPR) assay; assay type: binding; details: for residence time: τ=1/koff, read-out: Residence Time (t, min)
MLL1-WRAD2 complex = MLL1-WRAD2 complex (Homo sapiens (Human), UniProt P61964); assay: MLL1-WRAD2 enzyme assay (in vitro methyl transferase assay); assay type: biochemical
Description: Reaction was initiated with 1 μM 3H-SAM and incubated for 1 hour at 30° C. Reaction mixture was transferred to P81 filter-paper and washed with PBS before detection.

[1] = SPR, Table 1, read-out: WDR5 binding affinity (KD)
[2] = SPR, Table 2, read-out: WDR5 binding affinity SPR (KD)
[3] = MLL1-WRAD2 assay, read-out: In vitro MLL1 activity (IC50)
[4] = Table 4, effect of Fluoro-substitution, read-out: KD (SPR)

| Structure (SMILES) | Kd (WDR5 protein; [1]) [µM] | Kd (WDR5 protein; [2]) [µM] | residence time (WDR5 protein; SPR) [min] | IC50 (MLL1-WRAD2 complex; [3]) [µM] | Kd (WDR5 protein; [4]) [µM] | IC50 (MLL1-WRAD2 complex; Table 4, effect of Fluoro-substitution, read-out: IC50 (MLL1)) [µM] | τ (WDR5 protein; Table 4, effect of Fluoro-substitution) [min] |
| --- | --- | --- | --- | --- | --- | --- | --- |
| CC(C)COc1ccc(F)c(-c2ccc(N3CCN(C)CC3)c(NC(=O)c3c[nH]c(=O)cc3C(F)(F)F)c2)c1 [Example 6, N-(2′-fluoro-5′-isobutoxy-4-(4-methylpiperazin-1-yl)-[1,1′-biphenyl]-3-yl)-6-oxo-4-(trifluoromethyl)-1,6-dihydropyridine-3-carboxamide] | 0.076 | 0.076 | 0.19 | 2.51 |  |  |  |
| CN1CCN(c2ccc(-c3ccc(OC4CCOCC4)nc3F)cc2NC(=O)c2c[nH]c(=O)cc2C(F)(F)F)CC1 [Example 8, N-(5-(2-fluoro-6-((tetrahydro-2H-pyran-4-yl)oxy)pyridin-3-yl)-2-(4-methylpiperazin-1-yl)phenyl)-6-oxo-4-(trifluoromethyl)-1,6-dihydropyridine-3-carboxamide] | 0.005 | 0.005 | 5.85 | 1.48 |  |  |  |
| Cc1cc(C(=O)Nc2cc(-c3cc(CN4CCOCC4)ccc3F)ccc2N2CCN(C)CC2)cc(C)c1F [Example 11, 4-fluoro-N-(2′-fluoro-4-(4-methylpiperazin-1-yl)-5′-(morpholinomethyl)-[1,1′-biphenyl]-3-yl)-3,5-dimethylbenzamide] | 0.006 | 0.006 | 1.04 | 4.43 |  |  |  |
| CN1CCN(c2ccc(-c3cc(CN4CCOCC4)ccc3F)cc2NC(=O)c2cn(C)c(=O)cc2C(F)(F)F)CC1 [Example 13, N-(2′-fluoro-4-(4-methylpiperazin-1-yl)-5′-(morpholinomethyl)-[1,1′-biphenyl]-3-yl)-1-methyl-6-oxo-4-(trifluoromethyl)-1,6-dihydropyridine-3-carboxamide] | 0.015 | 0.015 | 0.3 | 8.98 |  |  |  |
| Cc1cc(=O)[nH]cc1C(=O)Nc1cc(-c2cc(CN3CCOCC3)ccc2F)ccc1N1CCN(C)CC1 [Example 29, N-(2′-fluoro-4-(4-methylpiperazin-1-yl)-5′-(morpholinomethyl)-[1,1′-biphenyl]-3-yl)-4-methyl-6-oxo-1,6-dihydropyridine-3-carboxamide] | 0.262 | 0.262 | 0.42 | 26.7 |  |  |  |
| CN1CCN(c2ccc(-c3ccc(CNC4CCCC4)cc3F)cc2NC(=O)c2c[nH]c(=O)cc2C(F)(F)F)CC1 [Example 33, N-(4′-((cyclopentylamino)methyl)-2′-fluoro-4-(4-methylpiperazin-1-yl)-[1,1′-biphenyl]-3-yl)-6-oxo-4-(trifluoromethyl)-1,6-dihydropyridine-3-carboxamide] | 0.023 | 0.023 | 1.37 | 8.45 |  |  |  |
| CN1CCN(c2ccc(-c3ccc(CNC4CCCCC4)cc3F)cc2NC(=O)c2c[nH]c(=O)cc2C(F)(F)F)CC1 [Example 34, N-(4′-((cyclohexylamino)methyl)-2′-fluoro-4-(4-methylpiperazin-1-yl)-[1,1′-biphenyl]-3-yl)-6-oxo-4-(trifluoromethyl)-1,6-dihydropyridine-3-carboxamide] | 0.021 | 0.021 | 0.26 | 13.7 |  |  |  |
| CN1CCN(c2ccc(-c3cc(CNC(C)(C)C)ccc3F)cc2NC(=O)c2c[nH]c(=O)cc2C(F)(F)F)CC1 [Example 35, N-(5′-((tert-butylamino)methyl)-2′-fluoro-4-(4-methylpiperazin-1-yl)-[1,1′-biphenyl]-3-yl)-6-oxo-4-(trifluoromethyl)-1,6-dihydropyridine-3-carboxamide] | 0.009 | 0.009 | 4.59 | 2.39 |  |  |  |
| Cc1cc(C(=O)Nc2cc(-c3cc(CN4CCOCC4)ccc3F)ccc2N2CCN(C)CC2)ccc1F [Example 36, 4-fluoro-N-(2′-fluoro-4-(4-methylpiperazin-1-yl)-5′-(morpholinomethyl)-[1,1′-biphenyl]-3-yl)-3-methylbenzamide] | 0.004 | 0.004 | 0.12 | > 30 |  |  |  |
| CN(C)Cc1ccc(F)c(-c2ccc(N3CCN(C)CC3)c(NC(=O)c3c[nH]c(=O)cc3C(F)(F)F)c2)c1 [Example 40, N-(5′-((dimethylamino)methyl)-2′-fluoro-4-(4-methylpiperazin-1-yl)-[1,1′-biphenyl]-3-yl)-6-oxo-4-(trifluoromethyl)-1,6-dihydropyridine-3-carboxamide] | 0.009 | 0.009 | 2.52 | 6.29 |  |  |  |
| Cc1cc(C(=O)Nc2cc(-c3cc(CN4CCOCC4)ccc3F)ccc2N2CCN(C)CC2)cc(C(F)(F)F)c1F [Example 41, 4-fluoro-N-(2′-fluoro-4-(4-methylpiperazin-1-yl)-5′-(morpholinomethyl)-[1,1′-biphenyl]-3-yl)-3-methyl-5-(trifluoromethyl)benzamide] | 0.055 | 0.055 | 0.77 | > 30 |  |  |  |
| CN1CCN(c2ccc(-c3cc(CNC4CCC(F)(F)CC4)ccc3F)cc2NC(=O)c2c[nH]c(=O)cc2C(F)(F)F)CC1 [Example 42, N-(5′-(((4,4-difluorocyclohexyl)amino)methyl)-2′-fluoro-4-(4-methylpiperazin-1-yl)-[1,1′-biphenyl]-3-yl)-6-oxo-4-(trifluoromethyl)-1,6-dihydropyridine-3-carboxamide] | 0.005 | 0.005 | 4.43 | 2.28 |  |  |  |
| CN1CCN(c2ccc(-c3cc(CN(C)C4COC4)ccc3F)cc2NC(=O)c2c[nH]c(=O)cc2C(F)(F)F)CC1 [Example 43, N-(2′-fluoro-5′-((methyl(oxetan-3-yl)amino)methyl)-4-(4-methylpiperazin-1-yl)-[1,1′-biphenyl]-3-yl)-6-oxo-4-(trifluoromethyl)-1,6-dihydropyridine-3-carboxamide] | 0.007 | 0.007 | 3.64 | 3.25 |  |  |  |
| CN1CCN(c2ccc(-c3cc(CN4CCOCC4)ccc3F)cc2NC(=O)c2ccc(O)cc2C(F)(F)F)CC1 [Example 44, N-(2′-fluoro-4-(4-methylpiperazin-1-yl)-5′-(morpholinomethyl)-[1,1′-biphenyl]-3-yl)-4-hydroxy-2-(trifluoromethyl)benzamide] | 0.069 | 0.069 | 0.23 | > 30 |  |  |  |
| CN(C)C1CCN(c2ccc(-c3cc(CN4CCOCC4)ccc3F)cc2NC(=O)c2c[nH]c(=O)cc2C(F)(F)F)C1 (centres unmarked) [Example 87, N-(4-(3-(dimethylamino)pyrrolidin-1-yl)-2′-fluoro-5′-(morpholinomethyl)-[1,1′-biphenyl]-3-yl)-6-oxo-4-(trifluoromethyl)-1,6-dihydropyridine-3-carboxamide] |  |  |  | 3.89 |  |  |  |

The next lines start with the values.

| Kd (WDR5 protein; [1]) [µM] | Kd (WDR5 protein; [2]) [µM] | residence time (WDR5 protein; SPR) [min] | IC50 (MLL1-WRAD2 complex; [3]) [µM] | Kd (WDR5 protein; [4]) [µM] | IC50 (MLL1-WRAD2 complex; Table 4, effect of Fluoro-substitution, read-out: IC50 (MLL1)) [µM] | τ (WDR5 protein; Table 4, effect of Fluoro-substitution) [min] | Structure (SMILES) |
| --- | --- | --- | --- | --- | --- | --- | --- |
| 0.0037 | 0.004 | 2.8 |  |  |  |  | C[C@@H]1CN(c2ccc(-c3cc(C(N)=O)ccc3F)cc2NC(=O)c2c[nH]c(=O)cc2C(F)(F)F)C[C@H](C)N1C [Example 119, N-(5′-carbamoyl-2′-fluoro-4-((3S,5R)-3,4,5-trimethylpiperazin-1-yl)-[1,1′-biphenyl]-3-yl)-6-oxo-4-(trifluoromethyl)-1,6-dihydropyridine-3-carboxamide] |
| 0.006 | 0.006 | 12.5 |  |  |  |  | C[C@@H]1CN(c2ccc(-c3cc(C(=O)NC(C)(C)CC(C)(C)C)c(F)cc3F)cc2NC(=O)c2c[nH]c(=O)cc2C(F)(F)F)C[C@H](C)N1C [Example 120, N-(2′,4′-difluoro-5′-((2,4,4-trimethylpentan-2-yl)carbamoyl)-4-((3S,5R)-3,4,5-trimethylpiperazin-1-yl)-[1,1′-biphenyl]-3-yl)-6-oxo-4-(trifluoromethyl)-1,6-dihydropyridine-3-carboxamide] |
| 0.0092 | 0.009 | 2.3 |  |  |  |  | C[C@@H]1CN(c2ccc(-c3cc(C(N)=O)c(F)cc3F)cc2NC(=O)c2c[nH]c(=O)cc2C(F)(F)F)C[C@H](C)N1C [Example 121, N-(5′-carbamoyl-2′,4′-difluoro-4-((3S,5R)-3,4,5-trimethylpiperazin-1-yl)-[1,1′-biphenyl]-3-yl)-6-oxo-4-(trifluoromethyl)-1,6-dihydropyridine-3-carboxamide] |
| 0.0076 | 0.008 | 6.7 |  |  |  |  | C[C@@H]1CN(c2ccc(-c3ccc(C(=O)NC(C)(C)CC(C)(C)C)c(F)c3F)cc2NC(=O)c2c[nH]c(=O)cc2C(F)(F)F)C[C@H](C)N1C [Example 122, N-(2′,3′-difluoro-4′-((2,4,4-trimethylpentan-2-yl)carbamoyl)-4-((3S,5R)-3,4,5-trimethylpiperazin-1-yl)-[1,1′-biphenyl]-3-yl)-6-oxo-4-(trifluoromethyl)-1,6-dihydropyridine-3-carboxamide] |
| 0.0036 | 0.004 | 4.2 |  |  |  |  | C[C@@H]1CN(c2ccc(-c3ccc(C(N)=O)c(F)c3F)cc2NC(=O)c2c[nH]c(=O)cc2C(F)(F)F)C[C@H](C)N1C [Example 123, N-(4′-carbamoyl-2′,3′-difluoro-4-((3S,5R)-3,4,5-trimethylpiperazin-1-yl)-[1,1′-biphenyl]-3-yl)-6-oxo-4-(trifluoromethyl)-1,6-dihydropyridine-3-carboxamide] |
|  |  |  |  | 0.0345 |  |  | CN1CCN(c2ccc(-c3cc(CN4CCOCC4)ccc3Cl)cc2NC(=O)c2c[nH]c(=O)cc2C(F)(F)F)CC1 [drawing 288, reference compound] |
|  |  |  |  |  | 0.939 |  | CN1CCN(c2ccc(-c3cc(CN4CCOCC4)ccc3F)cc2NC(=O)c2c[nH]c(=O)cc2C(F)(F)F)CC1 [drawing 289] |
|  |  |  |  | 0.006 |  |  | CN1CCN(c2ccc(-c3cc(C(=O)NC4CCCCC4)ccc3F)cc2NC(=O)c2c[nH]c(=O)cc2C(F)(F)F)CC1 [drawing 291] |
|  |  |  |  | 0.03 |  | 0.91 | CN1CCN(c2ccc(-c3cccc(CN4CCC(F)CC4)c3)cc2NC(=O)c2c[nH]c(=O)cc2C(F)(F)F)CC1 [reference compound] |
